Experimental data from the supplement of paper PMC10307832.

Tests used:
Assay in all cases: relative viability (nuclei count vs DMSO), 5 days (fraction); higher = more cells survive
XMD13-2 + Navitoclax = compound: C1CC1C(=O)NC2=NNC3=C2C=CC(=C3)C4=CC(=CC=C4)C(=O)NC5CC5 [XMD13-2] + CC1(C)CCC(c2ccc(Cl)cc2)=C(CN2CCN(c3ccc(C(=O)NS(=O)(=O)c4ccc(N[C@H](CCN5CCOCC5)CSc5ccccc5)c(S(=O)(=O)C(F)(F)F)c4)cc3)CC2)C1 [Navitoclax] (partner 0.5 µM)
In short: (§1)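 After 5 days of treatment, lung cancer cells in 1536-well plates were fixed and stained in a single step (final 0.05% Triton X-100, 1% formaldehyde, 1 ug/ml Hoechst) and their nuclei counted on 4× images. Treatment had been applied by pin tool the day after seeding as one drug alone or as a fixed anchor-drug dose with five library-drug doses (not always all listed) in √10 steps. Relative viability is the nuclei count of treated wells divided by that of vehicle wells, and values are medians of duplicate plates.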

ALW-II-49-7 + Navitoclax = compound: Cc1ccc(C(=O)Nc2cccc(C(F)(F)F)c2)cc1Nc1cncc(C(N)=O)c1 [ALW-II-49-7] + CC1(C)CCC(c2ccc(Cl)cc2)=C(CN2CCN(c3ccc(C(=O)NS(=O)(=O)c4ccc(N[C@H](CCN5CCOCC5)CSc5ccccc5)c(S(=O)(=O)C(F)(F)F)c4)cc3)CC2)C1 [Navitoclax] (partner 0.5 µM)
In short: as §1

ALW-II-49-7 + Linsitinib = compound: Cc1ccc(C(=O)Nc2cccc(C(F)(F)F)c2)cc1Nc1cncc(C(N)=O)c1 [ALW-II-49-7] + C[C@]1(O)C[C@@H](c2nc(-c3ccc4ccc(-c5ccccc5)nc4c3)c3c(N)nccn32)C1 [Linsitinib] (partner 1 µM)
In short: as §1

ALW-II-49-7 + Phenformin = compound: Cc1ccc(C(=O)Nc2cccc(C(F)(F)F)c2)cc1Nc1cncc(C(N)=O)c1 [ALW-II-49-7] + N=C(N)NC(=N)NCCc1ccccc1 [Phenformin] (partner 250 µM)
In short: as §1

| Cell Line | relative viability (XMD13-2 + Navitoclax; first compound 0.05 µM) | relative viability (XMD13-2 + Navitoclax; first compound 0.1581 µM) | relative viability (XMD13-2 + Navitoclax; first compound 0.5 µM) | relative viability (XMD13-2 + Navitoclax; first compound 1.581 µM) | relative viability (XMD13-2 + Navitoclax; first compound 5 µM) | relative viability (ALW-II-49-7 + Navitoclax; first compound 0.08 µM) | relative viability (ALW-II-49-7 + Navitoclax; first compound 0.253 µM) | relative viability (ALW-II-49-7 + Navitoclax; first compound 0.8 µM) | relative viability (ALW-II-49-7 + Navitoclax; first compound 2.53 µM) | relative viability (ALW-II-49-7 + Navitoclax; first compound 8 µM) | relative viability (ALW-II-49-7 + Linsitinib; first compound 0.08 µM) | relative viability (ALW-II-49-7 + Linsitinib; first compound 0.253 µM) | relative viability (ALW-II-49-7 + Linsitinib; first compound 0.8 µM) | relative viability (ALW-II-49-7 + Linsitinib; first compound 2.53 µM) | relative viability (ALW-II-49-7 + Linsitinib; first compound 8 µM) | relative viability (ALW-II-49-7 + Phenformin; first compound 0.08 µM) | relative viability (ALW-II-49-7 + Phenformin; first compound 0.253 µM) | relative viability (ALW-II-49-7 + Phenformin; first compound 0.8 µM) | relative viability (ALW-II-49-7 + Phenformin; first compound 2.53 µM) | relative viability (ALW-II-49-7 + Phenformin; first compound 8 µM) |
| --- | --- | --- | --- | --- | --- | --- | --- | --- | --- | --- | --- | --- | --- | --- | --- | --- | --- | --- | --- | --- |
| HOP-62 | 1.18 | 1.07 | 1.19 | 1.05 | 1.04 | 1.03 | 0.866 | 1.02 | 0.485 | 0.67 | 0.889 | 1.13 | 1.03 | 0.866 | 0.813 | 0.585 | 0.598 | 0.611 | 0.696 | 0.429 |
| EKVX | 1.17 | 0.869 | 0.859 | 0.973 | 0.997 | 0.942 | 0.888 | 0.832 | 0.502 | 1.08 | 0.972 | 0.91 | 1.05 | 0.699 | 0.815 | 0.233 | 0.229 | 0.215 | 0.261 | 0.224 |
| EMC-BAC-2 | 1.29 | 1.22 | 1.21 | 1.18 | 1.27 | 0.972 | 1.19 | 1.18 | 1.01 | 1.07 | 0.811 | 0.814 | 0.894 | 0.836 | 0.747 | 0.426 | 0.513 | 0.505 | 0.454 | 0.338 |
| HARA | 1.1 | 1.08 | 1.16 | 1.13 | 1.14 | 1.22 | 1.07 | 1.13 | 1.15 | 1.22 | 0.914 | 0.77 | 0.929 | 0.968 | 1.02 | 0.452 | 0.476 | 0.345 | 0.461 | 0.482 |
| LU99A | 0.927 | 0.741 | 0.811 | 0.805 | 0.523 | 0.899 | 0.838 | 0.926 | 0.895 | 0.779 | 0.569 | 0.464 | 0.573 | 0.421 | 0.589 | 0.845 | 0.923 | 0.82 | 0.988 | 0.746 |
| NCI-H1944 | 1.08 | 1.05 | 1.08 | 1.11 | 1.17 | 1.06 | 1.14 | 0.991 | 1.11 | 1.07 | 1.18 | 1.26 | 1.3 | 1.29 | 1.2 | 0.193 | 0.231 | 0.18 | 0.176 | 0.138 |
